# Source: patent publication US10576059B2, “Substituted phenylpyrrolecarboxamides with therapeutic activity in HIV” (New York Blood Center, Inc., priority 2014, dated 2020)
# Where two headings read alike, the source gives them in different places.
# Legend:
# TZM-bl cells = experiment: Cytotoxicity in TZM-bl cells (XTT); format: cell-based; details: 3 days
# Experimental: (§1) The cytotoxicity of test compounds in TZM-bl cells was also measured by the XTT method described previously^7. […] The soluble intracellular formazan was quantitated colorimetrically at 450 nm 4 h later. The percent of cytotoxicity and the CC50 values were calculated as above. (See Table 4)
# [1] = tested on: HIV-1 pseudovirus pseudotyped with HXB2 Env; experiment: microbe, parasite or virus in culture; format: cell-based; details: TZM-bl cells, HIV-1 pseudovirus with HXB2 Env
# HIV-1 Integrase = biological target: T1, HIV-1 Integrase (Human immunodeficiency virus type 1 group M subtype B, UniProt P04585); experiment: HIV-1 Integrase Assay; format: biochemical; details: HIV-1 Integrase Assay Kit from ExpressBio
# T1 construct: HIV-1 Integrase Assay Kit from ExpressBio; purchased ExpressBio (Thurnmont, Md.)
# Experimental: HIV-1 Integrase was performed as per the protocol in the HIV-1 Integrase Assay Kit from ExpressBio (Thurnmont, Md.). (See Table 3)
# [2] = tested on: panel of HIV-1 ENV-pseudoviruses (subtype A, A/D, A2/D, A/E, A/G, B, C and D); experiment: microbe, parasite or virus in culture; format: cell-based
# [3] = tested on: cell-to-cell fusion mediated by HIV-1 (HIV-1HXB2 Env); experiment: microbe, parasite or virus in culture; format: cell-based; details: Human immunodeficiency virus 1; MAGI-CCR5 and HL 2/3 cells, 24 h, β-gal readout
# Experimental: To assess the ability of NBD-compounds to block cell-to-cell fusion mediated by HIV-1 we performed cell fusion assay as previously described 3^1-3 with some modifications. […] Following fusion of the two cell lines Tat induce the expression of β-gal enzyme. […] The percent inhibition and the IC50 values were calculated using the GraphPad Prism software.
# [4] = Cytotoxicity in TZM-bl cells (XTT); format: cell-based; details: human
# Experimental: as §1
# PBMC = experiment: Cytotoxicity in PBMC (XTT); format: cell-based; details: 7 days
# Experimental: For the PBMC toxicity assay we used 5×10^5 cells/ml and the cytotoxicity of the compounds was measured after 7 days of incubation as previously reported^8. Following the addition of XTT the soluble intracellular formazan was quantitated colorimetrically at 450 nm 4 h later. The percent of cytotoxicity and the CC50 values were calculated as above. (See Table 4)
# [5] = tested on: laboratory-adapted HIV-1 strains; experiment: microbe, parasite or virus in culture; format: cell-based; details: Human immunodeficiency virus 1, MT2, read-out: IC50 (μm), Laboratory strain RF, subtype B, MT-2, co-receptor R5X4
# [6] = tested on: lab-adapted and primary HIV-1 isolates; experiment: microbe, parasite or virus in culture; details: Human immunodeficiency virus 1, PBMC
# Experimental: PBMCs were isolated from the blood of healthy donors at the New York Blood Center by standard density gradient centrifugation using Histopaque-1077 (Sigma-Aldrich). The cells were cultured at 37° C. for 2 hr. […] The PHA-stimulated cells (5×10^4 cells/well) were infected with lab-adapted and primary HIV-1 isolates at 500 TCID50 (0.01 MOI) in the absence or presence of inhibitors at graded concentrations. Culture media were replaced every 3 days with fresh media. The supernatants were collected 7 days post-infection and tested for p24 antigen by ELISA. The percent inhibition of p24 production and IC50 values were calculated by the GraphPad Prism software.
# [7] = Human immunodeficiency virus 1, TZM-bl, read-out: IC50 (μM) ± S.D., subtype A2/D, NIH # 11906, ENV QG393.60M.ENV.B7
# [8] = Human immunodeficiency virus 1, TZM-bl, read-out: IC50 (μM) ± S.D., subtype A, NIH # 11888, ENV QB726.70M.ENV.C4
# [9] = Human immunodeficiency virus 1, TZM-bl, read-out: IC50 (μM) ± S.D., subtype A, NIH # 11889, ENV QB726.70M.ENV.B3
# [10] = Human immunodeficiency virus 1, TZM-bl, read-out: IC50 (μM) ± S.D., subtype A/E (potential), NIH # 11603, ENV CRF01_AE clone 269
# [11] = Human immunodeficiency virus 1, TZM-bl, read-out: IC50 (μM) ± S.D., subtype A/G, NIH # 11605, ENV CRF02_AG clone 278
# [12] = Human immunodeficiency virus 1, TZM-bl, read-out: IC50 (μM) ± S.D., subtype B, ENV B41
# [13] = Human immunodeficiency virus 1, TZM-bl, read-out: IC50 (μM) ± S.D., subtype B, NIH # 11018, ENV QH0692, clone 42
# [14] = Human immunodeficiency virus 1, TZM-bl, read-out: IC50 (μM) ± S.D., subtype B, NIH # 11022, ENV PVO, clone 4
# [15] = Human immunodeficiency virus 1, TZM-bl, read-out: IC50 (μM) ± S.D., subtype B, NIH # 11035, ENV pREJO4541 clone 67
# [16] = Human immunodeficiency virus 1, TZM-bl, read-out: IC50 (μM) ± S.D., subtype C, NIH # 11307, ENV Du172, clone 17
# [17] = Human immunodeficiency virus 1, TZM-bl, read-out: IC50 (μM) ± S.D., subtype C, NIH # 11311, ENV ZM233M.PB6
# [18] = Human immunodeficiency virus 1, TZM-bl, read-out: IC50 (μM) ± S.D., subtype C, NIH # 11313, ENV ZM53M.PB12
# [19] = Human immunodeficiency virus 1, TZM-bl, read-out: IC50 (μM) ± S.D., subtype D, NIH # 11918, ENV QD435.100M.ENV.E1
# [20] = Human immunodeficiency virus 1, HXB2, TZM-bl
compound,measurement,setting,value
Cc1nc(C(CN)NC(=O)c2cc3cc(Cl)ccc3[nH]2)sc1CO (stereo not drawn) [Compound 61],CC50,TZM-bl cells,> 55000 nM
same,IC50,[1],~50000 nM
"Cc1nc(C(CN)NC(=O)c2ccc(-c3ccc(Cl)cc3)[nH]2)sc1CO (single isomer, unassigned) [Compound 39]",IC50,HIV-1 Integrase,> 100 µM
"Cc1nc(C(NC(=O)c2ccc(-c3ccc(Cl)cc3)[nH]2)C2CCCCN2)sc1CO (single isomer, unassigned) [Compound 17]",IC50,[2]; [7],0.8 ± 0.3 µM
same,IC50,"[2]; Human immunodeficiency virus 1, TZM-bl, read-out: IC50 (μM) ± S.D., subtype A, NIH # 11887, ENV Q259env.w6",1.6 ± 0.1 µM
same,IC50,[2]; [8],1.3 ± 0.3 µM
same,IC50,[2]; [9],1.3 ± 0.4 µM
same,IC50,"[2]; Human immunodeficiency virus 1, TZM-bl, read-out: IC50 (μM) ± S.D., subtype A, NIH # 11890, ENV QF495.23M.ENV.A1",1.3 ± 0.4 µM
same,IC50,"[2]; Human immunodeficiency virus 1, TZM-bl, read-out: IC50 (μM) ± S.D., subtype A, NIH # 11891, ENV QF495.23M.ENV.A3",0.88 ± 0.4 µM
same,IC50,"[2]; Human immunodeficiency virus 1, TZM-bl, read-out: IC50 (μM) ± S.D., subtype A, NIH # 11892, ENV QF495.23M.ENV.B2",0.6 ± 0.4 µM
same,IC50,"[2]; Human immunodeficiency virus 1, TZM-bl, read-out: IC50 (μM) ± S.D., subtype A/D, NIH # 11901, ENV QA790.2041.ENV.A4",1.4 ± 0.05 µM
same,IC50,"[2]; Human immunodeficiency virus 1, TZM-bl, read-out: IC50 (μM) ± S.D., subtype A/D, NIH # 11903, ENV QA790.2041.ENV.C8",1.6 ± 0.2 µM
same,IC50,[2]; [10],1.5 ± 0.3 µM
same,IC50,"[2]; Human immunodeficiency virus 1, TZM-bl, read-out: IC50 (μM) ± S.D., subtype A/G, NIH # 11601, ENV CRF02 AG clone 263",1.4 ± 0.3 µM
same,IC50,[2]; [11],1.3 ± 0.5 µM
same,IC50,[2]; [12],0.68 ± 0.1 µM
same,IC50,[2]; [13],0.52 ± 0.1 µM
same,IC50,[2]; [14],1.9 ± 0.1 µM
same,IC50,"[2]; Human immunodeficiency virus 1, TZM-bl, read-out: IC50 (μM) ± S.D., subtype B, NIH # 11033, ENV pWITO4160 clone 33",1.7 ± 0.1 µM
same,IC50,[2]; [15],1.6 ± 0.3 µM
same,IC50,"[2]; Human immunodeficiency virus 1, TZM-bl, read-out: IC50 (μM) ± S.D., subtype B, NIH # 11038, ENV pCAAN5342 clone A2",0.6 ± 0.07 µM
same,IC50,[2]; [16],1.9 ± 0.5 µM
same,IC50,[2]; [17],1.3 ± 0.1 µM
same,IC50,[2]; [18],1.5 ± 0.2 µM
same,IC50,"[2]; Human immunodeficiency virus 1, TZM-bl, read-out: IC50 (μM) ± S.D., subtype D, NIH # 11916, ENV QD435.100M.ENV.B5",1.7 ± 0.5 µM
same,IC50,[2]; [19],3.7 ± 0.1 µM
same,IC50,[3],10.8 µM
"Cc1nc(C(NC(=O)c2ccc(-c3ccc(Cl)cc3)[nH]2)C2CCCCN2)sc1CO (single isomer, unassigned) [Compound 19]",IC50,[2]; [8],1.5 ± 0.6 µM
same,IC50,[2]; [10],1.7 ± 0.9 µM
same,IC50,[2]; [11],1.8 ± 0.2 µM
same,IC50,"[2]; Human immunodeficiency virus 1, TZM-bl, read-out: IC50 (μM) ± S.D., subtype B, NIH # 11578, ENV pWEAUd15.410.5017",1.7 ± 0.03 µM
same,IC50,"[2]; Human immunodeficiency virus 1, TZM-bl, read-out: IC50 (μM) ± S.D., subtype C, NIH # 11310, ENV ZM214M.PL15",1.7 ± 0.6 µM
same,IC50,"[2]; Human immunodeficiency virus 1, TZM-bl, read-out: IC50 (μM) ± S.D., subtype C, NIH # 11314, ENV ZM109F.PB4",1.9 ± 0.3 µM
same,IC50,"[2]; Human immunodeficiency virus 1, TZM-bl, read-out: IC50 (μM) ± S.D., subtype D, NIH # 11912, ENV QA013.701.ENV.M12",1.7 ± 0.2 µM
same,IC50,"[2]; read-out: IC50 (μM) ± S.D., subtype A2/D, NIH # 11906, ENV QG393.60M.ENV.B7",1.4 ± 0.5 µM
same,IC50,"[2]; read-out: IC50 (μM) ± S.D., subtype A, NIH # 11890, ENV QF495.23M.ENV.A1",0.86 ± 0.4 µM
same,IC50,"[2]; read-out: IC50 (μM) ± S.D., subtype A, NIH # 11891, ENV QF495.23M.ENV.A3",1.3 ± 0.3 µM
same,IC50,"[2]; read-out: IC50 (μM) ± S.D., subtype A, NIH # 11892, ENV QF495.23M.ENV.B2",1.1 ± 0.2 µM
same,IC50,"[2]; read-out: IC50 (μM) ± S.D., subtype A/D, NIH # 11903, ENV QA790.2041.ENV.C8",1.6 ± 0.2 µM
same,IC50,"[2]; read-out: IC50 (μM) ± S.D., subtype B, ENV B41",1.1 ± 0.4 µM
same,IC50,"[2]; read-out: IC50 (μM) ± S.D., subtype B, NIH # 11018, ENV QH0692, clone 42",0.9 ± 0.3 µM
same,IC50,"[2]; read-out: IC50 (μM) ± S.D., subtype B, NIH # 11022, ENV PVO, clone 4",1.1 ± 0.2 µM
same,IC50,"[2]; read-out: IC50 (μM) ± S.D., subtype B, NIH # 11024, ENV AC10.0, clone 29",0.74 ± 0.25 µM
same,IC50,"[2]; read-out: IC50 (μM) ± S.D., subtype B, NIH # 11038, ENV pCAAN5342 clone A2",0.64 ± 0.01 µM
same,IC50,"[2]; subtype A, NIH # 11889, ENV QB726.70M.ENV.B3, read-out: IC50 (μM) ± S.D.",2.4 ± 0.9 µM
same,IC50,[3],7.6 µM
Cc1nc(C(CN)NC(=O)c2cc3ccccc3[nH]2)sc1CO (stereo not drawn) [Compound 62],CC50 at 3 days,[4],> 60000 nM
same,IC50,[1]; [20],> 60000 nM
Cc1nc(C(CN)NC(=O)c2cc3ccccc3[nH]2)sc1CO (stereo not drawn) [Compound 63],CC50,TZM-bl cells,> 60000 nM
same,IC50,[1],> 60000 nM
Cc1nc(C(NC(=O)C(=O)Nc2ccc(Cl)cc2)C2CCCCN2)sc1CO (stereo not drawn) [NBD-09027],CC50,PBMC,> 160000 nM
Cc1nc(C(CN)NC(=O)c2cc3cc(Cl)ccc3[nH]2)sc1CO (stereo not drawn) [Compound 60],CC50 at 3 days,[4],~47000 nM
same,IC50,[1]; [20],> 40000 nM
Cc1nc(C(NC(=O)c2ccc(-c3ccc(Cl)cc3)[nH]2)C2CCCCN2)sc1CO (stereo not drawn) [Compound 15],IC50,[5],7300 ± 600 nM
same,IC50,[2]; [7],1.7 ± 0.2 µM
same,IC50,[2]; [9],1.5 ± 0.9 µM
same,IC50,"[2]; Human immunodeficiency virus 1, TZM-bl, read-out: IC50 (μM) ± S.D., subtype A/G, NIH # 11602, ENV CRF02_AG clone 266",1.6 ± 0.5 µM
same,IC50,[2]; [12],1.1 ± 0.1 µM
same,IC50,[2]; [13],0.7 ± 0.2 µM
same,IC50,[2]; [14],1.7 ± 0.1 µM
same,IC50,"[2]; Human immunodeficiency virus 1, TZM-bl, read-out: IC50 (μM) ± S.D., subtype B, NIH # 11023, ENV TRO, clone 11",1.3 ± 0.2 µM
same,IC50,[2]; [15],1.8 ± 0.2 µM
same,IC50,[2]; [16],1.5 ± 0.3 µM
same,IC50,[2]; [17],1.4 ± 0.2 µM
same,IC50,[2]; [18],1.3 ± 0.2 µM
same,IC50,[2]; [19],4 ± 0.8 µM
same,IC50,"[2]; read-out: IC50 (μM) ± S.D., subtype B, NIH # 11058, ENV SC422661.8",0.6 ± 0.1 µM
same,IC50,"[2]; subtype A, ENV BG505-T332N, read-out: IC50 (μM) ± S.D.",2.4 ± 1 µM
same,IC50,"[2]; subtype D, NIH # 11912, ENV QA013.701.ENV.M12, read-out: IC50 (μM) ± S.D.",2.4 ± 0.2 µM
same,CC50,PBMC,~36000 nM
same,IC50,"[6]; read-out: IC50 (μm), Laboratory strain BaL, subtype B, PBMC, co-receptor R5",3700 ± 400 nM
same,IC50,"[6]; read-out: IC50 (μm), Primary isolate 93TH060, subtype E, PBMC, co-receptor R5",5500 ± 1200 nM
